According to patent US9546156B2, “N-bicyclic aryl,N'-pyrazolyl urea, thiourea, guanidine cyanoguanidine compounds as TrkA kinase inhibitors” (Array BioPharma Inc., priority 2012, dated 2017):

How the values were obtained:
[1] = biological target: T1, His-tagged recombinant human TrkA (Homo sapiens, UniProt P04629); assay: TrkA LanthaScreen Eu Kinase Binding Assay; conditions: averaged IC50; TR-FRET binding assay, 60 min, 22° C.; read-out: TrkA Enzyme IC50
T1 construct: 6HIS tagged cytoplasmic domain from Invitrogen, Catalog No. PV3144; purchased Invitrogen PV3144
Method: TrkA binding activity was determined in a TrkA LanthaScreen™ Eu Kinase Binding Assay. 5 nM His-tagged recombinant human TrkA (6HIS tagged cytoplasmic domain from Invitrogen, Catalog No. PV3144) was incubated with 4 nM Alexa-Fluor® Tracer 236 (Invitrogen Cat. No. PV5592), 2 nM biotinylated anti-His (Invitrogen Cat. No. PV6090), and 2 nM europium-labeled Streptavidin (Invitrogen Cat. No. PV5899), in buffer (25 mM MOPS, pH 7.5, 5 mM MgCl2, 0.005% Triton X-100). Three fold serial dilutions of compounds of the invention in DMSO were added to a final percentage of 2% DMSO. After 60-minute incubation at 22° C., the reaction was measured using the EnVision multimode plate reader (PerkinElmer) via TR-FRET dual wavelength detection at […]. The percent of control was calculated using a ratiometric emission factor. The IC50 values were determined by fitting a four parameter model to the percent of control data.
Table A provides averaged IC50 values for compounds of the invention when tested in the assay of Example A, where A represents an averaged IC50 value <100 nM; B represents an averaged IC50 value from 100 to 1,000 nM; and C represents an averaged IC50 value from 1,000 to 10,000 nM.

ARK5 = biological target: T2, ARK5 (Homo sapiens, UniProt O60285); assay: Off-target kinase profiling (KinaseProfiler); assay type: biochemical; conditions: 10 μM, ATP near Km
T2 construct: purchased Millipore, Inc. (KinaseProfiler service)
Method: (§1) A representative compound (Example 16) of the invention was tested for off-target kinase activity at a concentration of 10 μM by Millipore, Inc. in their KinaseProfiler™ service against all the kinases available in their full kinase panel. The compound was run in duplicate at a concentration of ATP near the Km for each individual kinase according to Millipore's specifications. The results are shown in Table B. Data are reported as percent of control (POC) and are the average of the two replicates.

AURKA = biological target: T3, AURKA (Homo sapiens, UniProt O14965); assay: Off-target kinase profiling (KinaseProfiler); assay type: biochemical; conditions: 10 μM, ATP near Km
T3 construct: purchased Millipore, Inc. (KinaseProfiler service)
Method: as §1

Abl2 = biological target: T4, Abl2 (Homo sapiens, UniProt P42684); assay: Off-target kinase profiling (KinaseProfiler); assay type: biochemical; conditions: 10 μM, ATP near Km
T4 construct: purchased Millipore, Inc. (KinaseProfiler service)
Method: as §1

CDK9/cyclinT1 = biological target: T5, CDK9/cyclinT1 (Homo sapiens, UniProt P50750); assay: Off-target kinase profiling (KinaseProfiler); assay type: biochemical; conditions: 10 μM, ATP near Km
T5 construct: purchased Millipore, Inc. (KinaseProfiler service)
Method: as §1

DRAK1 = biological target: T6, DRAK1 (Homo sapiens, UniProt Q9UEE5); assay: Off-target kinase profiling (KinaseProfiler); assay type: biochemical; conditions: 10 μM, ATP near Km
T6 construct: purchased Millipore, Inc. (KinaseProfiler service)
Method: as §1

EphA8 = biological target: T7, EphA8 (Homo sapiens, UniProt P29322); assay: Off-target kinase profiling (KinaseProfiler); assay type: biochemical; conditions: 10 μM, ATP near Km
T7 construct: purchased Millipore, Inc. (KinaseProfiler service)
Method: as §1

EphB2 = biological target: T8, EphB2 (Homo sapiens, UniProt P29323); assay: Off-target kinase profiling (KinaseProfiler); assay type: biochemical; conditions: 10 μM, ATP near Km
T8 construct: purchased Millipore, Inc. (KinaseProfiler service)
Method: as §1

ErbB4 = biological target: T9, ErbB4 (Homo sapiens, UniProt Q15303); assay: Off-target kinase profiling (KinaseProfiler); assay type: biochemical; conditions: 10 μM, ATP near Km
T9 construct: purchased Millipore, Inc. (KinaseProfiler service)
Method: as §1

GRK6 = biological target: T10, GRK6 (Homo sapiens, UniProt P43250); assay: Off-target kinase profiling (KinaseProfiler); assay type: biochemical; conditions: 10 μM, ATP near Km
T10 construct: purchased Millipore, Inc. (KinaseProfiler service)
Method: as §1

HIPK2 = biological target: T11, HIPK2 (Homo sapiens, UniProt Q9H2X6); assay: Off-target kinase profiling (KinaseProfiler); assay type: biochemical; conditions: 10 μM, ATP near Km
T11 construct: purchased Millipore, Inc. (KinaseProfiler service)
Method: as §1

HIPK3 = biological target: T12, HIPK3 (Homo sapiens, UniProt Q9H422); assay: Off-target kinase profiling (KinaseProfiler); assay type: biochemical; conditions: 10 μM, ATP near Km
T12 construct: purchased Millipore, Inc. (KinaseProfiler service)
Method: as §1

IGF-1R = biological target: T13, IGF-1R (Homo sapiens, UniProt P08069); assay: Off-target kinase profiling (KinaseProfiler); assay type: biochemical; conditions: 10 μM, ATP near Km
T13 construct: purchased Millipore, Inc. (KinaseProfiler service)
Method: as §1

IR = biological target: T14, IR (Homo sapiens, UniProt P06213); assay: Off-target kinase profiling (KinaseProfiler); assay type: biochemical; conditions: 10 μM, ATP near Km
T14 construct: purchased Millipore, Inc. (KinaseProfiler service)
Method: as §1

KDR = biological target: T15, KDR (Homo sapiens, UniProt P35968); assay: Off-target kinase profiling (KinaseProfiler); assay type: biochemical; conditions: 10 μM, ATP near Km
T15 construct: purchased Millipore, Inc. (KinaseProfiler service)
Method: as §1

MAP4K2 = biological target: T16, MAP4K2 (Homo sapiens, UniProt Q12851); assay: Off-target kinase profiling (KinaseProfiler); assay type: biochemical; conditions: 10 μM, ATP near Km
T16 construct: purchased Millipore, Inc. (KinaseProfiler service)
Method: as §1

MAPKAP-K3 = biological target: T17, MAPKAP-K3 (Homo sapiens, UniProt Q16644); assay: Off-target kinase profiling (KinaseProfiler); assay type: biochemical; conditions: 10 μM, ATP near Km
T17 construct: purchased Millipore, Inc. (KinaseProfiler service)
Method: as §1

MARK1 = biological target: T18, MARK1 (Homo sapiens, UniProt Q9P0L2); assay: Off-target kinase profiling (KinaseProfiler); assay type: biochemical; conditions: 10 μM, ATP near Km
T18 construct: purchased Millipore, Inc. (KinaseProfiler service)
Method: as §1

MRCKalpha = biological target: T19, MRCKalpha (Homo sapiens, UniProt Q5VT25); assay: Off-target kinase profiling (KinaseProfiler); assay type: biochemical; conditions: 10 μM, ATP near Km
T19 construct: purchased Millipore, Inc. (KinaseProfiler service)
Method: as §1

MRCKbeta = biological target: T20, MRCKbeta (Homo sapiens, UniProt Q9Y5S2); assay: Off-target kinase profiling (KinaseProfiler); assay type: biochemical; conditions: 10 μM, ATP near Km
T20 construct: purchased Millipore, Inc. (KinaseProfiler service)
Method: as §1

MSSK1 = biological target: T21, MSSK1 (Homo sapiens, UniProt Q9UPE1); assay: Off-target kinase profiling (KinaseProfiler); assay type: biochemical; conditions: 10 μM, ATP near Km
T21 construct: purchased Millipore, Inc. (KinaseProfiler service)
Method: as §1

PAK2 = biological target: T22, PAK2 (Homo sapiens, UniProt Q13177); assay: Off-target kinase profiling (KinaseProfiler); assay type: biochemical; conditions: 10 μM, ATP near Km
T22 construct: purchased Millipore, Inc. (KinaseProfiler service)
Method: as §1

PKCbetaI = biological target: T23, PKCbetaI (Homo sapiens, UniProt P05771); assay: Off-target kinase profiling (KinaseProfiler); assay type: biochemical; conditions: 10 μM, ATP near Km
T23 construct: purchased Millipore, Inc. (KinaseProfiler service)
Method: as §1

RIPK2 = biological target: T24, RIPK2 (Homo sapiens, UniProt O43353); assay: Off-target kinase profiling (KinaseProfiler); assay type: biochemical; conditions: 10 μM, ATP near Km
T24 construct: purchased Millipore, Inc. (KinaseProfiler service)
Method: as §1

Rse = biological target: T25, Rse (Homo sapiens, UniProt Q06418); assay: Off-target kinase profiling (KinaseProfiler); assay type: biochemical; conditions: 10 μM, ATP near Km
T25 construct: purchased Millipore, Inc. (KinaseProfiler service)
Method: as §1

SGK3 = biological target: T26, SGK3 (Homo sapiens, UniProt Q96BR1); assay: Off-target kinase profiling (KinaseProfiler); assay type: biochemical; conditions: 10 μM, ATP near Km
T26 construct: purchased Millipore, Inc. (KinaseProfiler service)
Method: as §1

SIK = biological target: T27, SIK (Homo sapiens, UniProt P57059); assay: Off-target kinase profiling (KinaseProfiler); assay type: biochemical; conditions: 10 μM, ATP near Km
T27 construct: purchased Millipore, Inc. (KinaseProfiler service)
Method: as §1

STK33 = biological target: T28, STK33 (Homo sapiens, UniProt Q9BYT3); assay: Off-target kinase profiling (KinaseProfiler); assay type: biochemical; conditions: 10 μM, ATP near Km
T28 construct: purchased Millipore, Inc. (KinaseProfiler service)
Method: as §1

TNK2 = biological target: T29, TNK2 (Homo sapiens, UniProt Q07912); assay: Off-target kinase profiling (KinaseProfiler); assay type: biochemical; conditions: 10 μM, ATP near Km
T29 construct: purchased Millipore, Inc. (KinaseProfiler service)
Method: as §1

ULK3 = biological target: T30, ULK3 (Homo sapiens, UniProt Q6PHR2); assay: Off-target kinase profiling (KinaseProfiler); assay type: biochemical; conditions: 10 μM, ATP near Km
T30 construct: purchased Millipore, Inc. (KinaseProfiler service)
Method: as §1

WNK3 = biological target: T31, WNK3 (Homo sapiens, UniProt Q9BYP7); assay: Off-target kinase profiling (KinaseProfiler); assay type: biochemical; conditions: 10 μM, ATP near Km
T31 construct: purchased Millipore, Inc. (KinaseProfiler service)
Method: as §1

eEF-2K = biological target: T32, eEF-2K (Homo sapiens, UniProt O00418); assay: Off-target kinase profiling (KinaseProfiler); assay type: biochemical; conditions: 10 μM, ATP near Km
T32 construct: purchased Millipore, Inc. (KinaseProfiler service)
Method: as §1

T25 sequence (Q06418 41-890): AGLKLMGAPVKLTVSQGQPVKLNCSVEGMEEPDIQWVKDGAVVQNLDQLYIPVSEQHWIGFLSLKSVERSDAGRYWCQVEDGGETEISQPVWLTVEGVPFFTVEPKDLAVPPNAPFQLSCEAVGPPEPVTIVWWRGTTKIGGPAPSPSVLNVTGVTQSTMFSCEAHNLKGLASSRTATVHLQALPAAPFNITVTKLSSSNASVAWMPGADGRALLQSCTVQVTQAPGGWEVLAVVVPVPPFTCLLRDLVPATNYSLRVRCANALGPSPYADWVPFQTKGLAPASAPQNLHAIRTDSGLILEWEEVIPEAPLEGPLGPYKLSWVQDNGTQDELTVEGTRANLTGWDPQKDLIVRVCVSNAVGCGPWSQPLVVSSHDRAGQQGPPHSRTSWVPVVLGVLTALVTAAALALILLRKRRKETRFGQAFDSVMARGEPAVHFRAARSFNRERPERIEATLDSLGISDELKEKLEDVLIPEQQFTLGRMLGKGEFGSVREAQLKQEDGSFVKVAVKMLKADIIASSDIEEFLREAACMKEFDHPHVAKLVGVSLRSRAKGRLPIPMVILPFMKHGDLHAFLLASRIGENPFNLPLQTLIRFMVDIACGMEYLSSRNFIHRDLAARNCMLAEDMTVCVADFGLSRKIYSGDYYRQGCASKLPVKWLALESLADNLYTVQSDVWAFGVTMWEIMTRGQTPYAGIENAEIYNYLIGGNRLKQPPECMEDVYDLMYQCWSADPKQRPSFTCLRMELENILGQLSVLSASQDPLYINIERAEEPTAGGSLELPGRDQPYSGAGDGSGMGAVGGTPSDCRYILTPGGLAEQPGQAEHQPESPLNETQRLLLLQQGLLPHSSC
T27 sequence (P57059 whole entry): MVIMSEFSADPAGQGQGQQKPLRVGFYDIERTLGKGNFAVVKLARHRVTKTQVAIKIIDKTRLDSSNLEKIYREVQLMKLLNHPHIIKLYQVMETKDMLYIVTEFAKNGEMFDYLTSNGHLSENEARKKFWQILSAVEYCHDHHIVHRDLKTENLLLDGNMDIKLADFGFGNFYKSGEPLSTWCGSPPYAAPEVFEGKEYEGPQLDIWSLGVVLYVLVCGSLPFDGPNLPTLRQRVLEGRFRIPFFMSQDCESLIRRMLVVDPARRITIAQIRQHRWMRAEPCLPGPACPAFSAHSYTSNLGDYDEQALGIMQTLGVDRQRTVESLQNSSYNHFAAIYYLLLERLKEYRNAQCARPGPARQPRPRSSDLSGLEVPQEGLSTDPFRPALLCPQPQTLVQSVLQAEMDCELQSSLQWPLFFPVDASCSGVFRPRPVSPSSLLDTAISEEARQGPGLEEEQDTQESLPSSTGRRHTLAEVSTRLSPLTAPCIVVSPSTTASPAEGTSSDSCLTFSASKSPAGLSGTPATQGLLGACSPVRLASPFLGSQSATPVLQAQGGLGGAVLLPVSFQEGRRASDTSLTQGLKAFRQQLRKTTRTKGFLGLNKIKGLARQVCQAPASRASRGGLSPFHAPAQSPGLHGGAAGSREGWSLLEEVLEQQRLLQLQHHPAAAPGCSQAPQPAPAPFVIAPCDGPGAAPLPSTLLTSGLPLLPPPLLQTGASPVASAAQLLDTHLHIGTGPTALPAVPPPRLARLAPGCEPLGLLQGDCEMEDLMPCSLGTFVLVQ
T1 sequence (P04629 440-796 limits assumed): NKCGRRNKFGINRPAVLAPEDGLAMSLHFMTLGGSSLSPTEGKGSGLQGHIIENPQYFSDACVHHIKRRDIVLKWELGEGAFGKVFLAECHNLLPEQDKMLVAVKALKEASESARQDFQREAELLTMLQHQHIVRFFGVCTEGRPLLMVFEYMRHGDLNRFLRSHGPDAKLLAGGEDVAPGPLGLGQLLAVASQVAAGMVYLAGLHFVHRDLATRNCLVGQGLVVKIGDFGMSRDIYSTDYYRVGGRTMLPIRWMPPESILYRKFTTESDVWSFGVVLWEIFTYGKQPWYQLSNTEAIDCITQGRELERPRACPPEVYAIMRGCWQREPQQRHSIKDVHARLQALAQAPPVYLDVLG
T17 sequence (Q16644 whole entry): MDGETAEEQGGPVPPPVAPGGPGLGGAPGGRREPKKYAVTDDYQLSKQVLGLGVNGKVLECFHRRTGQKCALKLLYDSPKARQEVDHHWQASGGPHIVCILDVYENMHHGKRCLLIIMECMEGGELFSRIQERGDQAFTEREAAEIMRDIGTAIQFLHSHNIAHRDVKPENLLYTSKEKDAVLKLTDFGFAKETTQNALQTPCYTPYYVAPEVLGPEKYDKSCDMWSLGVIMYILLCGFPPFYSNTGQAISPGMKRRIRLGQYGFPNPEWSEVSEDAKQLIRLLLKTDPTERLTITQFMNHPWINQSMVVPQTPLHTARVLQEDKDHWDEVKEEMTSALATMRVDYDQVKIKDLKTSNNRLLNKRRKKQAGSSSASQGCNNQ
T22 sequence (Q13177 whole entry): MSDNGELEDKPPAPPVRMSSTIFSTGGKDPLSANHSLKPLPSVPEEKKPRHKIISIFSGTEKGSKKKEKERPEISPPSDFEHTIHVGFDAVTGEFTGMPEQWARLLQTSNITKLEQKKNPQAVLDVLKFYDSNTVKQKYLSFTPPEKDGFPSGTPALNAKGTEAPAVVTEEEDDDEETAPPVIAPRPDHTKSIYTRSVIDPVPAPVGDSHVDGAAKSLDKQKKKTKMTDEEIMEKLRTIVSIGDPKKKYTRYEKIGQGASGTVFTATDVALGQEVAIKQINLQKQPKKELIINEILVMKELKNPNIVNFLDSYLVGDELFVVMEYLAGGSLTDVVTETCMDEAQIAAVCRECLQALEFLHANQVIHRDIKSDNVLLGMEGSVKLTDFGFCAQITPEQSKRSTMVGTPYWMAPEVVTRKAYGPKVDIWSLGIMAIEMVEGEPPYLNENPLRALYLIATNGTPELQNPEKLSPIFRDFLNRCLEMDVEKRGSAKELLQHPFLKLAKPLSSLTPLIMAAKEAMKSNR
T7 sequence (P29322 28-1005): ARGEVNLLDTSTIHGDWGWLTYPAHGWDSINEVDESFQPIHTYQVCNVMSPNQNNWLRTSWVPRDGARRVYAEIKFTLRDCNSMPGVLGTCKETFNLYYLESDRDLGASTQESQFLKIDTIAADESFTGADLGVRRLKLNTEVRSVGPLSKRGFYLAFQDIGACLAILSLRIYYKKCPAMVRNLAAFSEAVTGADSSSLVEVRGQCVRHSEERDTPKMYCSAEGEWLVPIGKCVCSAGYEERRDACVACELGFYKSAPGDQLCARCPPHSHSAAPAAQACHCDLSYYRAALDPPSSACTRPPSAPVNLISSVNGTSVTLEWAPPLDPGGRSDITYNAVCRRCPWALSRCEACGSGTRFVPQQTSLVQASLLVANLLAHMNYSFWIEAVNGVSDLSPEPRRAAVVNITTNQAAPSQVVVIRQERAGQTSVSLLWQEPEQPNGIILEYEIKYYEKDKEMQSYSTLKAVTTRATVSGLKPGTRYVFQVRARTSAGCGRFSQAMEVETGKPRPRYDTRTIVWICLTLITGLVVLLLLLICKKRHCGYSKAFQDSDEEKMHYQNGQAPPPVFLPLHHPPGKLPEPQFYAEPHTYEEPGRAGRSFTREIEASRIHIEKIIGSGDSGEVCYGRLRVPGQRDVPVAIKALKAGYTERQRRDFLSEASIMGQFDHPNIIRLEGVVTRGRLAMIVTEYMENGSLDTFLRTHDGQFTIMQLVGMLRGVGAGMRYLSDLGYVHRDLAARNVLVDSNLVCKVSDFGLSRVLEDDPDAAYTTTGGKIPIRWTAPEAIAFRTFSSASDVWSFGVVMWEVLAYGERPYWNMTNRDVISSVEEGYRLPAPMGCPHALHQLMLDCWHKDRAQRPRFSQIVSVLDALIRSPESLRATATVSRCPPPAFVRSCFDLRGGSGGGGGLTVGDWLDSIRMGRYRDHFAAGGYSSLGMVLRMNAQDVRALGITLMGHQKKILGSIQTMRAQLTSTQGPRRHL
T2 sequence (O60285 whole entry): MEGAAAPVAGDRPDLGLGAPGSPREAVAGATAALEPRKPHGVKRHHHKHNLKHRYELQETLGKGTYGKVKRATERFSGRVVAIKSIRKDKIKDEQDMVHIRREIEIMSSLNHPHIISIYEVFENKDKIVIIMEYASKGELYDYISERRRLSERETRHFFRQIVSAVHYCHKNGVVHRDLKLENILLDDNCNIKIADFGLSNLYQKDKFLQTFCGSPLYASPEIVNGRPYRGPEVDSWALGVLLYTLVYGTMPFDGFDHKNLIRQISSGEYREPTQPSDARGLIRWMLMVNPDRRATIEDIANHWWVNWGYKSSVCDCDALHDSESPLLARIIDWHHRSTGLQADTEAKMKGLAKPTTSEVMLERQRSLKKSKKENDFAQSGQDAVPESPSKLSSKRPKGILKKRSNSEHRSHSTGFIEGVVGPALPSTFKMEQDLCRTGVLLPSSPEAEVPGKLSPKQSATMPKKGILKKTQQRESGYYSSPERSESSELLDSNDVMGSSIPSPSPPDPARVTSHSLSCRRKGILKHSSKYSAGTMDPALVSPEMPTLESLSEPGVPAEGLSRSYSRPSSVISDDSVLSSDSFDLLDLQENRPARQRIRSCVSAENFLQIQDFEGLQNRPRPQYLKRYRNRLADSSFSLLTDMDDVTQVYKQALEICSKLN
T26 sequence (Q96BR1 whole entry): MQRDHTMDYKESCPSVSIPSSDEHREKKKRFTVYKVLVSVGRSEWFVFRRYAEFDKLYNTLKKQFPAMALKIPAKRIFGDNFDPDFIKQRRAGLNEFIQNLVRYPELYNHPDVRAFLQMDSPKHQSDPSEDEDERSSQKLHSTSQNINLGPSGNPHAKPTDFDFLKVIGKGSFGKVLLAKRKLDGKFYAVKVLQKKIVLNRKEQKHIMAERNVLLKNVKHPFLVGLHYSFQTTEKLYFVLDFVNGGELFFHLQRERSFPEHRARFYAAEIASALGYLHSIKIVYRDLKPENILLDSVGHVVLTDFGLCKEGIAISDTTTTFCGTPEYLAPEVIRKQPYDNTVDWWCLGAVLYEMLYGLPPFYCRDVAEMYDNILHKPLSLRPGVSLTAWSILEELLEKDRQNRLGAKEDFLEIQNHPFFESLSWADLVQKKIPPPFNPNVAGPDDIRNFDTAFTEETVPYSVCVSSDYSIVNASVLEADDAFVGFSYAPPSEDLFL

COCc1ccc2cccc(NC(=O)Nc3c(C)c(-c4cnn(C)c4)nn3-c3ccccc3)c2c1 [Example 16, 1-(1′,4-dimethyl-1-phenyl-1H,1′H-[3,4′-bipyrazol]-5-yl)-3-(7-(methoxymethyl)naphthalen-1-yl)urea]
IC50 [1]: < 100 nM
Avg POC (ARK5): 103.5 POC
Avg POC (AURKA): 128 POC
Avg POC (Abl2): 119.5 POC
Avg POC (CDK9/cyclinT1): 114.5 POC
Avg POC (DRAK1): 136 POC
Avg POC (EphA8): 112.5 POC
Avg POC (EphB2): 109 POC
Avg POC (ErbB4): 118 POC
Avg POC (GRK6): 106 POC
Avg POC (HIPK2): 97 POC
Avg POC (HIPK3): 109.5 POC
Avg POC (IGF-1R): 81 POC
Avg POC (IR): 92 POC
Avg POC (KDR): 159 POC
Avg POC (MAP4K2): 110.5 POC
Avg POC (MAPKAP-K3): 126.5 POC
Avg POC (MARK1): 94.5 POC
Avg POC (MRCKalpha): 143.5 POC
Avg POC (MRCKbeta): 119 POC
Avg POC (MSSK1): 136.5 POC
Avg POC (PAK2): 121 POC
Avg POC (PKCbetaI): 97 POC
Avg POC (RIPK2): 107 POC
Avg POC (Rse): 120.5 POC
Avg POC (SGK3): 131.5 POC
Avg POC (SIK): 121 POC
Avg POC (STK33): 106 POC
Avg POC (TNK2): 115 POC
Avg POC (ULK3): 98.5 POC
Avg POC (WNK3): 122 POC
Avg POC (eEF-2K): 145.5 POC
